Data: US20140187470A1 (Synergy Pharmaceuticals Inc., priority 2013, published 2014)
One block for each compound: values may come before it. Where a SMILES comes first, the peptide text is derived from it. Bridges are numbered along the chain shown (N, C = ends).

What was measured:
CaCo-2 cells = test: 3H-taurocholate (bile acid) absorption by CaCo-2 monolayer; assay type: cell-based, human; conditions: for Absorption of 3H-taurocholate (kinetics experiment): 16-day grown CaCo-2 monolayers, up to 60 minutes incubation; for Absorption of 3H-taurocholate (kinetics experiment) / Absorption of 3H-taurocholate (bar graph experiment): 30 minutes pre-incubation; for Absorption of 3H-taurocholate (bar graph experiment): CaCo-2 cells grown for 20 days, 60 minutes incubation, quadruplets
Procedure: (§1) CaCo-2 cell culture: CaCo-2, human colon carcinoma cells, were obtained from American Type Culture Collection (ATCC) and cultured in DMEM medium containing 10% fetal bovine serum, 1% penicillin-streptomycin, 2 mM L-glutamine, 1% non-essential-amino acids. Cells were fed fresh medium every third day and grown for 16-21 days to form completely differentiated monolayer. Fully differentiated CaCo-2 cells are known to express high density of GC-C receptors.
Preparation of ^3H-taurocholate Cocktail: Phosphatidyl choline was dissolved in ethanol to make 50 mM stock solution. Calculated volume of the stock solution of phosphatidyl choline was mixed with 3H-taurocholate in a plastic tube and dried under argon gas at 80° C. The dried material was dissolved in transport buffer to get the final concentration of phosphatidyl choline (0.5 mM) and of 3H-taurocholate 10 μCi/mL.
CaCo-2 cells were grown in 24-well plates for 16 days to allow complete monolayer formation and cell differentiation. Completely differentiated monolayers were then pre-incubated with 250 μL of the transport buffer (HEPES 25 mM, NaCl 120 mM, KCl 5.4 mM, CaCl2 1.8 mM and MgSO4, pH 7.5) containing either SP-304 alone or in combination with PDE inhibitors such as IBMX, SS and ZAP. The monolayers were pre-incubated with transport buffer containing either of the following: vehicle (control), 1 mM 8-bromo-cGMP, 500 μM SS, 500 μM ZAP, 1 μM SP-304, 0.1 μM SP-304+500 μM SS and 1 μM SP-304+500 μM ZAP. After the indicated pre-incubation time, 50 μL of ^3H-taurocholate (1 μCi) cocktail was added and cells were incubated for an additional 60 minutes, washed three times with ice cold PBS. Cells were lysed with 0.5 N NaOH for 4 hours and radioactivity in the lysate was counted in a scintillation counter.
16-day grown monolayers of CaCo-2 cells in 24-well plates were pre-incubated with transport buffer containing the compounds as indicated in the figure for 30 minutes. After the pre-incubation, 1 μCi of ^3H-taurocholate cocktail was added in each well and cells were further incubated for 60 minutes. Cells were washed three times with ice cold PBS and lysed with 0.5 N NaOH and lysates were counted for radioactivity in a scintillation counter. Results are expressed as an average of three determinations. Results on the x-axis were plotted in logarithmic scale.
After the pre-incubation, 1 μCi of ^3H-taurocholate cocktail was added in each well and cells were further incubated for 60 minutes. Cells were washed three times with ice cold PBS and lysed with 0.5 N NaOH and lysates were counted for radioactivity in a scintillation counter. This experiment was run in quadruplets and results are expressed as mean±SD.
The procedure used in this experiment was essentially the same except that a lower concentration of ZAP (250 μM) in combination experiments with SP-304.

GC-C receptors = target: T1, GC-C receptors (Homo sapiens, UniProt P25092); test: Cyclic GMP stimulation assay in CaCo-2 cells; assay type: cell-based; conditions: CaCo-2 monolayers; for Effect of PDE inhibitor on stimulation of cGMP production by SP-304: in combination with SP-304, 30 minutes
T1 construct: Fully differentiated CaCo-2 cells are known to express high density of GC-C receptors; host or cells: CaCo-2 human colon carcinoma cells, differentiated monolayers
T1 sequence (P25092 24-1073): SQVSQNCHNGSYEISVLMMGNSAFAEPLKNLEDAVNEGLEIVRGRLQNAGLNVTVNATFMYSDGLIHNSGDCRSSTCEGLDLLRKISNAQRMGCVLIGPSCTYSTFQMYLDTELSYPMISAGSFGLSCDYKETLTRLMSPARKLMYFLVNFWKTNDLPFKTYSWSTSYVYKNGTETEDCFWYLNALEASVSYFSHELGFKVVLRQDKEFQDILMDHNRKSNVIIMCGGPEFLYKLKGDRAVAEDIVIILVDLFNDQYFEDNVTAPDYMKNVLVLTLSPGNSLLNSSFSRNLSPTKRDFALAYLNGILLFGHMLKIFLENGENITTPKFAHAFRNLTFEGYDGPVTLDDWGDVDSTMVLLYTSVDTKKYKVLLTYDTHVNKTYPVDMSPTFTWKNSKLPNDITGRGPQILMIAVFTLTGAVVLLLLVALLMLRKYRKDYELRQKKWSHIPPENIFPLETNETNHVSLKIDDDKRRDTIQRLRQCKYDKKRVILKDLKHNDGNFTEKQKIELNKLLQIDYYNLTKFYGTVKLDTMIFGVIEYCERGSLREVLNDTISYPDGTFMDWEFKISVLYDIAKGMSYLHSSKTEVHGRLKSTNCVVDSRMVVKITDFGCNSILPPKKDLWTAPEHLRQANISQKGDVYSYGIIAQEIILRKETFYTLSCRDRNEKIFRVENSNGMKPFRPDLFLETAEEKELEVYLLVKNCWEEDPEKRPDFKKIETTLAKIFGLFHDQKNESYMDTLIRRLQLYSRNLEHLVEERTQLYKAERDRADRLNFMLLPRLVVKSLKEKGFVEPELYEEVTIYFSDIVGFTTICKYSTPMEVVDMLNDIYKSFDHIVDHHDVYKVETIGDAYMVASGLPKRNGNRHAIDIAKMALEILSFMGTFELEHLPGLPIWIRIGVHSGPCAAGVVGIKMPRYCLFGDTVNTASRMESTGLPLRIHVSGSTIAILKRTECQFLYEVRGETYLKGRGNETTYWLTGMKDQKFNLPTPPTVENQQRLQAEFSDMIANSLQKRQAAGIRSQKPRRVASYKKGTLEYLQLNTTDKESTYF
Procedure: as §1
Cyclic GMP stimulation assay: Biological activity of the GCRA peptides was assayed as previously reported (5). Briefly, 16 days grown monolayers of CaCo-2 cells in 24-well plates were washed twice with 250 μl of DMEM containing 50 mM HEPES (pH 7.4), pre-incubated at 37° C. for 10 min with 250 μl of DMEM containing 50 mM HEPES (pH 7.4) and 1 mM isobutylmethylxanthine (IBMX), followed by incubation with GCRA peptides (0.1 nM to 10 μM) for 30 min. The medium was aspirated, and the reaction was terminated by the addition of 3% perchloric acid. Following centrifugation, and neutralization with 0.1 N NaOH, the supernatant was used directly for measurements of cGMP using an ELISA kit (Caymen Chemical, Ann Arbor, Mich.)
Monolayers were treated 500 μL of serum free DMEM for 30 minutes with either SP-304 alone or in combination with phosphodiesterase inhibitors such as, 3-isobutyl-1-methylxanthine (IBMX), sulindac sulfone (SS) and zaprinast (ZAP). After the incubation, monolayers were lysed with 250 μL of 3% perchloric acid. The lysate was neutralized with 0.1 N NaOH and used for ELISA to determine the concentration of cGMP. The assay procedure was essentially the same as described (5). […] Since CaCo-2 cells overexpress phosphodiesterases (PDE), GC-C agonists are used in combination with PDE inhibitors to measure the actual stimulatory effect of GC-C agonists.

[1] = In vitro proteolytic stability using simulated gastric fluid (SGF) digestion, HPLC analysis; assay type: in vitro ADME; conditions: 0 min vs 120 min, HPLC (FIG. 1B)
Procedure: FIG. 1B is a schematic representation of the results of HPLC chromatographic analyses of SP-304 samples after incubation with SGF at indicated times (0 min in the upper panel and 120 min in the lower panel). […] The arrows indicate the elution position of SP-304.
The stability of the GRCA peptide according to the invention is determined in the presence of simulated gastric fluid (SGF). GRCA peptide (final concentration of 8.5 mg/ml) is incubated in SGF (Proteose peptone (8.3 g/liter; Difco), D-Glucose (3.5 g/liter; Sigma), NaCl (2.05 g/liter; Sigma), KH2PO4 (0.6 g/liter; Sigma), CaCl2 (0.11 g/liter), KCl (0.37 g/liter; Sigma), Porcine bile (final 1× concentration 0.05 g/liter; Sigma) in PBS, Lysozyme (final 1× concentration 0.10 g/liter; Sigma) in PBS, Pepsin (final 1× concentration 0.0133 g/liter; Sigma) in PBS). SGF is made on the day of the experiment and the pH is adjusted to 2.0±0.1 using HCl or NaOH as necessary. After the pH adjustment, SGF is sterilized filtered with 0.22 μm membrane filters. SP-304 (final concentration of 8.5 mg/ml) is incubated in SGF at 37° C. for 0, 15, 30, 45, 60 and 120 min in triplicate aliquots. Following incubations, samples are snap frozen in dry ice then are stored in a −80° C. freezer until they are assayed in duplicate.

[2] = tested on: patients with chronic idiopathic constipation (CIC); test: Plecanatide Phase IIb/III trial in patients with chronic idiopathic constipation; assay type: in vivo, human
Procedure: The randomized, double-blind, placebo-controlled, repeat-dose, dose-ranging study was designed to determine whether plecanatide could increase the number of complete spontaneous bowel movements (CSBM's) and impact other parameters such as stool consistency, straining and time to first bowel movement in patients with CIC. The 12-week study, which included 951 CIC patients at 113 clinical sites in the United States, evaluated 3 doses of plecanatide (0.3, 1.0, 3.0 mg) plus a placebo arm.

animal models = test: Animal models, oral administration of plecanatide; assay type: in vivo
[3] = In vitro proteolytic stability using simulated intestinal fluid (SIF) digestion, HPLC analysis; assay type: in vitro ADME
Procedure: FIG. 2B is a schematic representation of the results of HPLC chromatographic analyses of SP304 samples after incubation with (A) heat inactivated SIF for 300 min or with (B) SIF for 120 min. […] Arrows indicate the position of SP-304.
Arrow indicates the elution position of SP-304 peptide. […] These new peptide peaks represent the possible degradation products of SP-304.
Arrow indicates the elution position of SP-332 peptide.
Arrows indicate the elution position of SP-333.
The stability of the GRCA peptide is also evaluated against digestion with simulated intestinal fluid (SIF). SIF solution was prepared by the method as described in the United States Pharmacopoeia, 24th edition, p2236. The recipe to prepare SIF solution is as described below. The SIF solution contains NaCl (2.05 g/liter; Sigma), KH2PO4 (0.6 g/liter; Sigma), CaCl2 (0.11 g/liter), KCl (0.37 g/liter; Sigma), and Pacreatin 10 mg/ml. The pH is adjusted to 6 and the solution is filter sterilized. A solution of SP-304 (8.5 mg/ml) is incubated in […] at 37° C. for 0, 30, 60, 90, 120, 150 and 300 min in triplicate aliquots. Following incubations, samples are removed and snap frozen with dry ice and stored in a −80° C. freezer until they are assayed in duplicate. F
The integrity of GRCA peptide is evaluated by HPLC by essentially using the method described for SGF digestion.

[4] = simulated gastric fluid (SGF) with Pepsin (0.0133 g/liter), Lysozyme, Porcine bile, pH 2.0±0.1; conditions: 37° C., up to 120 min
[5] = Phase IIb/III clinical study, oral, CIC

Compound: Nc1nc2c(nc(Br)n2[C@@H]2O[C@@H]3COP(=O)(O)O[C@H]3[C@H]2O)c(=O)[nH]1 [8-Br-cGMP, 8-bromo-cGMP, reference compound]
- Absorption of 3H-taurocholate (kinetics experiment) (CaCo-2 cells): inhibited
- Absorption of 3H-taurocholate (bar graph experiment) (CaCo-2 cells): inhibited

Compound: CC(C)Cn1c(=O)n(C)c(=O)c2[nH]cnc21 [IBMX, 3-isobutyl-1-methylxanthine]
- Effect of PDE inhibitor on stimulation of cGMP production by SP-304 (GC-C receptors): synergistic effects

Compound: Asn^1-Asp^2-Glu^3-Cys^4-Glu^5-Leu^6-Cys^7-Val^8-Asn^9-Val^10-Ala^11-Cys^12-Thr^13-Gly^14-Cys^15-Leu^16
- not cleaved [4]: major peak did not change after 120 min

The next lines start with results.

- HPLC major peak after incubation with SGF [1]: resistant to SGF digestion
- cGMP production by CaCo-2 cells in response to stimulation (GC-C receptors; 30 minutes): produced cGMP
- HPLC peak after incubation with SIF for 60 min ([3]; 0 vs 60 min, HPLC (FIG. 7D)): completely vanished
Compound: CC(C)C[C@H](NC(=O)[C@@H]1CSSC[C@@H]2NC(=O)[C@H](CC(C)C)NC(=O)[C@H](CCC(=O)O)NC(=O)[C@@H](NC(=O)[C@H](CCC(=O)O)NC(=O)[C@H](CC(=O)O)NC(=O)[C@@H](N)CC(N)=O)CSSC[C@H](NC(=O)[C@H](C)NC(=O)[C@H](C(C)C)NC(=O)[C@H](CC(N)=O)NC(=O)[C@H](C(C)C)NC2=O)C(=O)N[C@@H]([C@@H](C)O)C(=O)NCC(=O)N1)C(=O)O [SP-304, Asn^1-Asp^2-Glu^3-Cys^4-Glu^5-Leu^6-Cys^7-Val^8-Asn^9-Val^10-Ala^11-Cys^12-Thr^13-Gly^14-Cys^15-Leu^16] (H-NDECELCVNVACTGCL-OH; disulfide 4-12, 7-15; N-terminus assumed)
- Absorption of 3H-taurocholate (kinetics experiment) (CaCo-2 cells): inhibited
- Absorption of 3H-taurocholate (bar graph experiment) (CaCo-2 cells): inhibited
- Inhibition in absorption of 3H-taurocholate, SP-304 alone (CaCo-2 cells; SP-304 0.1 μM alone): did not produce much inhibition
- Inhibition of 3H-taurocholate absorption, SP-304 in combination with ZAP (CaCo-2 cells; SP-304 0.1 μM in combination with ZAP (250 μM)): greater effect on inhibition
- Overall responder rate ([2]; 3 mg dose, 12-week treatment, CIC patients (placebo 10.7%), p=0.009): 19%
- Mean increase in CSBMs over the 12-week treatment period ([2]; 3 mg dose, CIC patients, p<0.001): 2.13
- Incidence of diarrhea ([2]; 3 mg, CIC patients (placebo incidence 1.3%)): 9.7%
- Key secondary endpoints ([2]; Phase IIb/III clinical study, CIC patients): statistically significant improvements
- Primary and key secondary endpoints of the study [2, 5]: met the primary and key secondary endpoints
- Tolerability [2, 5]: well tolerated
- GI inflammation (animal models): ameliorates GI inflammation
- Intestinal secretion (animal models): promotes intestinal secretion
- HPLC peak after incubation with SIF for 120 min ([3]; 120 min, HPLC (FIG. 2B, 7E, 7F)): completely converted SP-304 into another peptide

- Effect of PDE inhibitor on stimulation of cGMP production by SP-304 (GC-C receptors): synergistic effects
Compound: CC1=C(CC(=O)O)c2cc(F)ccc2/C1=C\c1ccc(S(C)(=O)=O)cc1 [SS, sulindac sulfone]

- Production of cGMP among the PDE inhibitors (GC-C receptors; in combination with SP-304): maximum production of cGMP
- Effect of PDE inhibitor on stimulation of cGMP production by SP-304 (GC-C receptors): synergistic effects
Compound: CCCOc1ccccc1-c1nc2nn[nH]c2c(=O)[nH]1 [ZAP, zaprinast]
